Measured values reported in publication PMC9270351, “Conjugates of urolithin A with NSAIDs, their stability, cytotoxicity, and anti-inflammatory potential” (Scientific Reports, 2022).

Legend:
[1] = tested on: IL-10 secretion in LPS-stimulated THP-1 derived macrophages; test: IL-10 secretion of LPS-stimulated macrophages (ELISA); type: cell-based, human; conditions: over tested concentrations; 1 h treatment, then LPS 24 h
Method: (§1) THP-1 human monocytic cells (DSMZ, Braunschweig, Germany) were studied between passages 4 and 19. Monocytes were differentiated into THP-1 derived macrophages according to modified, previously described protocol. THP-1 monocytes were seeded in 24-well plates at a density of 400,000 cells per well. Cells were incubated at 37 °C under humidified 5% CO2 in the culture medium containing RPMI 1640 without phenol red supplemented with 10% FBS and 2 mM glutamine. In order to differentiate THP-1 monocytes into macrophages, cells were treated with 25 ng/mL PMA followed by 48 h incubation, medium change and an additional 24 h resting. Selected UADs were added to THP-1 derived macrophages at concentrations 2–50 µM and left for 1-h resting. Next, cells were treated with 10 ng/ml LPS. Successful differentiation was confirmed by the presence of distinguishing macrophage markers such as: cell adherence, changes in morphology and response to bacterial LPS stimulation and, consequently, TNF-α secretion.
(§2) After treatment with the test compounds for 1 h and subsequent stimulation with LPS for 3 h (for TNF-α secretion measurements) or 24 h (for IL-10 and IL-6 secretion measurements) supernatants were collected. The secretion of cytokines levels was measured by ELISA kits according to the manufacturer’s instruction (Human TNF-α, Human IL-10 and Human IL-6 ELISA kits, BD Biosciences, Franklin Lakes, NJ, USA). […]

[2] = tested on: IL-6 secretion in LPS-stimulated THP-1 derived macrophages; test: IL-6 secretion of LPS-stimulated macrophages (ELISA); type: cell-based, human; conditions: 1 h treatment, then LPS 24 h
Method: as §1, §2

[3] = tested on: THP-1 derived macrophages; test: MTT assay, cell viability; type: cell-based, human; conditions: tested concentration range 2–50 µM; 1 h treatment, then LPS for 3 or 24 h
Method: as §1, with “Successful differentiation was confirmed by the presence of distinguishing macrophage markers such as: cell adherence, changes in morphology and response to bacterial LPS stimulation and, consequently, TNF-α secretion.” left out
THP-1 monocytes were seeded in 24-well plates at a density of 400,000 cells per well and differentiated into THP-1 derived macrophages according to the method described above. […] After medium removal, crystals were dissolved in 400 µL DMSO, 200 µL of solution was transferred to 96-well plate and the absorbance of the solution was measured at λ = 570 nm with the correction to 630 nm using a microplate reader. […]

[4] = tested on: TNF-α secretion in LPS-stimulated THP-1 derived macrophages; test: TNF-α secretion of LPS-stimulated macrophages (ELISA); type: cell-based, human; conditions: over tested concentrations; 1 h treatment, then LPS 3 h
Method: as §1, §2

THP-1 monocytes = test: PI flow cytometric assay, cell viability; type: cell-based, human; conditions: 24-h incubation
Method: THP-1 monocytes were seeded in 24-well plates at a density of 400,000. Selected UADs (2–50 µM), control (0.25% DMSO in PBS), UA (50 µM) and parthenolide (25 µM) as a control were added to THP-1 monocytes and left for 24-h incubation at 37 °C under humidified 5% CO2 in the culture medium containing RPMI 1640 without phenol red supplemented with 10% FBS and 2 mM glutamine. After that time, cell suspensions were transferred to Eppendorf tubes, centrifuged, stained with propidium iodide (PI) and analyzed using FACS (MACSQuant® Analyze, Miltenyi Biotec, Bergisch Gladbach, Germany). The cell viability was reported as the percentage of PI(−) cells.

COc1ccc2c(c1)c(=O)oc1cc(OC(=O)C(C)c3ccc(CC(C)C)cc3)ccc12 (stereo not shown) [Mix 7, 8-methoxy-6-oxo-6H-benzo[c]chromen-3-yl 2-(4-isobutylphenyl)propanoate]
melting point: 114.4 to 115.7 °C

COc1ccc2c(c1)c(=O)oc1cc(OC(=O)c3ccccc3Nc3cccc(C)c3C)ccc12 [Mix 8, 8-methoxy-6-oxo-6H-benzo[c]chromen-3-yl 2-((2,3-dimethylphenyl)amino)benzoate]
melting point: 186.7 to 189.2 °C

COc1ccc2c(c1)c(=O)oc1cc(OC(=O)Cc3ccccc3Nc3c(Cl)cccc3Cl)ccc12 [Mix 9, 8-methoxy-6-oxo-6H-benzo[c]chromen-3-yl 2-(2-((2,6-dichlorophenyl)amino)phenyl)acetate]
melting point: 207.3 to 208.5 °C

COc1ccc2c(c1)c(=O)oc1cc(OC(=O)c3ccccc3OC(C)=O)ccc12 [Mix 10, 8-methoxy-6-oxo-6H-benzo[c]chromen-3-yl 2-acetoxybenzoate]
melting point: 192.6 to 193.5 °C

O=c1oc2cc(O)ccc2c2ccc(O)cc12 [UA, 3,8-dihydroxy-6H-benzo[c]chromen-6-one]
Effect on IL-10 secretion [1]: did not significantly affect IL-10 secretion
Effect on IL-6 secretion ([2]; 50 µM): inhibited secretion of IL-6
Cell viability / cytotoxic effect (MTT) [3]: no cytotoxic effect was observed
Effect on TNF-α secretion [4]: inhibitory effect on TNF-α secretion in a dose-dependent manner
Cell viability (PI-stained cells, flow cytometry) (THP-1 monocytes; 50 µM): Slight, yet statistically significant decline in monocytes viability

Cc1cccc(Nc2ccccc2C(=O)O)c1C [mefenamic acid]
Effect on IL-10 secretion [1]: did not influence IL-10 secretion
Effect on IL-6 secretion ([2]; over tested concentrations): increased IL-6 production in a dose-dependent manner
Effect on TNF-α secretion [4]: stimulating effect

C=C1C(=O)O[C@H]2[C@H]1CC/C(C)=C/CC[C@@]1(C)O[C@@H]21 [parthenolide]
Cell viability (PI-stained cells, flow cytometry) (THP-1 monocytes; 25 µM, positive control): decreased THP-1 viability
